The target of series [1] is T1, CYP3A4 (Homo sapiens, UniProt P08684). In words: Metabolism based on in vivo data. The arrangement: from tissue; host or cells: endogenous enzyme of clinical subjects (in vivo). As to the method: (§1) Based on those pharmacokinetics, bifeprunox (an investigational partial dopamine agonist antipsychotic compound) was rapidly absorbed after oral administration. Multiple-dose PK of bifeprunox were dose proportional over the range of 20 to 40 mg doses. Bifeprunox was extensively distributed into peripheral tissues and highly protein bound. It was primarily eliminated in the feces. […] Bifeprunox has a low drug interaction potential with other drugs used in these studies (e.g. lithium, warfarin and famotidine).

Series [2] addresses T2, CYP2C9 (Homo sapiens, UniProt P11712). In words: Metabolism based on in vivo data. Further details: from tissue; host or cells: endogenous enzyme of clinical subjects (in vivo). As to the method:
as §1

Series [3] can be described thus: Administration with a high-fat meal. Type of series: in vivo, human. Particulars: 40 mg dose. Here is the method: Bifeprunox was rapidly absorbed after oral administration. The median time to peak plasma concentration (Tmax) was approximately 2 hours. Multiple patients were dosed proportional in the 20 to 40 mg/day range (mean AUC0-24 for 20 mg: 381.5 ng·hr/mL and mean AUC0-24 for 40 mg: 825.1 ng·hr/mL). […] Absolute oral bioavailability of the bifeprunox tablets used in the pooled studies has not been determined.

Series [4] in a line: PK in healthy subjects with reduced CYP2C enzyme activity. Format: in vivo, human.
Series [5] can be described thus: Tablet dissolution test (paddle method). Type of series: physicochemical. Conditions: McILvaine buffer pH 3.0. Here is the method: Three different strengths of tablets (10 mg, 5 mg and 1 mg of bifeprunox mesylate) were prepared having the compositions shown in Table 10; the tablets were designated T1, T2 and T3, respectively.
Each of the tablets were placed in a dissolution test under the following conditions: Apparatus: paddle method; Stirring speed: 50 rpm; Amount of test dissolution medium: 900 ml; Temperature of dissolution medium: 37° C.±0.5° C.
Six different dissolution media were used as follows:
Media 1: Dissolve 2.0 g of sodium chloride dissolved in 7.0 ml of hydrochloric acid, q.s. with water to make 1000 ml (pH 1.2);
Media 2: McILvaine buffer solution (pH 3.0), pH adjusted with 0.05 mol/L of sodium hydrogen phosphate and 0.025 mol/L of citric acid;
Media 3: McILvaine buffer solution (pH 4.0);
Media 4: McILvaine buffer solution (pH 5.0);
Media 6: To 250 ml of 0.2 mol/L potassium dihydrogenphosphate TS add 118 ml of 0.2 mol/L sodium hydroxide TS and water to make 1000 ml.
Dissolution testing was performed in triplicate.

Series [6] is described as follows: Population PK assessment in patients with schizophrenia. Format: in vivo, human. Conditions: schizophrenia patients (SP). The text has this: (§2) The pharmacokinetics of bifeprunox in healthy subjects were investigated based on a pooled analysis of pharmacokinetic (PK) parameters from 21 clinical pharmacology studies. The pooled analysis included PK profiles obtained following single and multiple doses administered to 132 and 399 subjects, respectively, and explored the potential effects of age, gender, body weight and race. In addition, PK in patients (PTS) with schizophrenia were investigated using a population PK approach based on samples from 376 subjects in phase II studies and 434 subjects in phase III studies.
A population-based PK assessment using compartmental methods was conducted in 810 patients with schizophrenia enrolled in several clinical studies.

Another series deals with plasma proteins. In words: Plasma protein binding. Type of series: in vitro ADME. Conditions: human, healthy patients as well as those with renal or hepatic impairment, read-out: bound to plasma proteins. The text has this:
Apparent volume of distribution (Vz/F) was 1300 L. Based upon the volume of distribution, bifeprunox was extensively distributed into the peripheral tissues. […] Bifeprunox was more than 99% bound to plasma proteins in healthy patients as well as those with renal or hepatic impairment.

For series [7], the target named is T2, CYP2C9. As to the kind of experiment: In vitro metabolism. Type of series: in vitro ADME. Conditions: in vitro data.
Another series can be described thus: In vitro metabolism. Type of series: in vitro ADME. Particulars: in vitro data, CYP2A4.
Series [8] concerns the target T1, CYP3A4. As to the kind of experiment: In vitro metabolism. Format: in vitro ADME. Conditions: in vitro data.
A short description of series [9]: Maximum tolerated single dose. Type of series: in vivo, human. Conditions: healthy subjects and patients with schizophrenia. Here is the method: (§3) In healthy subjects and patients with schizophrenia, the maximum tolerated single dose of bifeprunox was 0.5 mg. Tolerance to dose-limiting side effects (nausea, dizziness, vomiting, and orthostatic hypotension) developed as the dosage was titrated upwards. All PK assessments at doses higher than 0.5 mg were performed following multiple dosages under steady-state conditions. Doses of 5-40 mg were administered in efficacy studies. PK parameters describing absorption, distribution, metabolism, and elimination were calculated based on non-compartmental analysis. PK parameter values from each study were combined to create a pooled dataset. The potential influence of gender, body weight, and race on bifeprunox PK was analyzed.

A short description of series [10]: Pooled analysis of pharmacokinetic parameters in healthy subjects. Type of series: in vivo, human.
Source text: as §2, §3

A short description of series [11]: Drug-drug interactions (co-administration). Format: in vivo, human. The source says: Co-administration with […] paroxetine had no effect on bifeprunox PK. Bifeprunox exposure was reduced by approximately 50% after co-administration with the CYP3A4 inducer carbamazepine. […] Bifeprunox had no effect on the PK and pharmacodynamics of warfarin and the PK of lithium. […] Administration of famotidine, an H2 antagonist that inhibits gastric acid secretion, had no effect on bifeprunox PK.

Series [12] is described as follows: Stability of polymorphic forms. Type of series: physicochemical. Conditions: for thermodynamic stability of the crystalline form: monomethanesulfonate. The source says: During further investigations it appeared that polymorphs γ and δ are metastable, and therefore may have drawbacks when used in a pharmaceutical formulation. The unpredictable formation of one of the two polymorphs γ and δ or a mixture thereof is also undesirable. It would be desirable, therefore, to provide a stable crystalline form of 7-[4-([1,1′-biphenyl]-3-ylmethyl)-1-piperazinyl]-2(3H)-benzoxazolone monomethanesulfonate for pharmaceutical use which can be consistently produced.
Furthermore this crystalline form crystallizes in the form of large crystals which can be easily filtrated and have a high purity. Therefore this polymorph α is particularly suitable for the formulation of bifeprunox mesylate in a solid form, if desired after particle size reduction.

Where [13] appears, read: co-administration with carbamazepine.
Setting [14] is: co-administration with fluconazole.
The mark [15] stands for this setting: co-administration with ketoconazole.

Read-outs that look alike come from different tables or passages of the source.

T1 sequence (P08684 whole entry): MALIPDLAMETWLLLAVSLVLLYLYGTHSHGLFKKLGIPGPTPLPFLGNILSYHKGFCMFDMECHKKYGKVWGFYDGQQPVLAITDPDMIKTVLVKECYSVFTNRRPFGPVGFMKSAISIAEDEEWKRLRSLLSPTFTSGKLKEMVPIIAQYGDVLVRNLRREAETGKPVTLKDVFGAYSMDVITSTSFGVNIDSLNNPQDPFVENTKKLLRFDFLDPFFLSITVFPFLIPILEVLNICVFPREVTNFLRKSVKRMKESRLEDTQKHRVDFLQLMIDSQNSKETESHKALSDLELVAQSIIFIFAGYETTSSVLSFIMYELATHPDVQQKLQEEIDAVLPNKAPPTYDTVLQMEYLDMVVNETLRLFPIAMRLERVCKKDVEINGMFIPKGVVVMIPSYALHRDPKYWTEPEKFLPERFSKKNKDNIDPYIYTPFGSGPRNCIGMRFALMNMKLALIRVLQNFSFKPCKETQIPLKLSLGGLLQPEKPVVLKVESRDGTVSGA
T2 sequence (P11712 whole entry): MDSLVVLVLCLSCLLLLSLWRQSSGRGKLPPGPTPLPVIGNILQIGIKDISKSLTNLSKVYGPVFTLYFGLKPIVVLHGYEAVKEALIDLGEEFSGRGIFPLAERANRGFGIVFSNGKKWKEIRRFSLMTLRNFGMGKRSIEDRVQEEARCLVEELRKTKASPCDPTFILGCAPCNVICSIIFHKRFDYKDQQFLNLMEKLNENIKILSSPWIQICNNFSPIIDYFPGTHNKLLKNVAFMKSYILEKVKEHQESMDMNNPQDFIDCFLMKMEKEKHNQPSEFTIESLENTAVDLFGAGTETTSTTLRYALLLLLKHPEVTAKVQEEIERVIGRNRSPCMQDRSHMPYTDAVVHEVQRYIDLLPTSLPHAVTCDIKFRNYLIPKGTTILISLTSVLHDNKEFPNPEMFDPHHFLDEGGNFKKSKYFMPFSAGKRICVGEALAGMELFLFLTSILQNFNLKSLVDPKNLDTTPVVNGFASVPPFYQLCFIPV

For the molecule `O=c1[nH]c2cccc(N3CCN(Cc4cccc(-c5ccccc5)c4)CC3)c2o1` [bifeprunox, 7-[4-([1,1′-biphenyl]-3-ylmethyl)-1-piperazinyl]-2(3H)-benzoxazolone monomethanesulfonate], the results for the “metabolism by enzyme, based on in vivo data” value at CYP3A4 [1] and at CYP2C9 [2] were “to a lesser extent” and “primarily metabolized”, respectively. In addition, the “Cmax increase with high-fat meal” value in [3] is given as 29%. For the same molecule, in series [3], the “Tmax delay with high-fat meal” value was 1.5 h. Moreover, the “AUC, fold higher than for extensive metabolizers” value is recorded as 3.7 fold in series [4] (intermediate metabolizers) and 7.1 fold in series [4] (slow metabolizers). The “Cmax, fold higher than for extensive metabolizers” value in series [4] (intermediate metabolizers (reduced CYP2C activity)) is 3.1 fold; in series [4] (slow metabolizers (reduced CYP2C activity)), 3.9 fold. Further, the dissolution behavior result in series [5] was “dissolves almost immediately”. Also, the half-life is 15 h in series [6] (human, in vivo, oral); 14 h in series [10] (human, in vivo); 14.4 ± 5.3 h in [10] (human, in vivo, multiple dose, 20 and 40 mg/day, mean ± SD, read-out: T1/2 (converted)). Besides, the Vd/F in series [6] (human, in vivo, oral, read-out: Vz/F) is roughly 1100 L; in [10] (human, in vivo), roughly 1300 L; in series [10] (human, plasma, oral, healthy subjects, read-out: Apparent volume of distribution (Vz/F)), 1300 L; in [10] (human, plasma, oral, multiple dose, 20 and 40 mg/day, mean ± SD, read-out: Vzbw/F (apparent volume of distribution corrected by body weight)), 17.3 ± 9.4 L/kg. Besides, the Cl/F turned out to be 57 L/h in [6] and 62.2 L/h in series [10] (healthy subjects (HS)). In the series with plasma proteins, the fraction unbound is less than 0.01. The figures for the “metabolism in the liver by enzyme” value on CYP2C9 [7], in the series “In vitro metabolism” and at CYP3A4 [8] were “primarily”, “minor contribution” and “primarily”, respectively. The “maximum tolerated single dose” value in series [9] is recorded as 0.5 mg. Also, in [10] (based on hepatic blood flow and oral clearance), the “Bioavailability (predicted)” value is on record as 54%. In addition, in [10] (following multiple dose administration), the “mean steady-state elimination half-life (t1/2)” value was 14.4 hours and approximately 14 hours. The blood plasma ratio in [10] (human, blood and plasma) is 0.7 to 0.9. Also, the “distribution of bifeprunox or its metabolites into red blood cells” value in series [10] (human, in vivo) is “No extensive distribution”. In addition, the AUC(0-t) in [10] (human, plasma, oral, 20 mg, multiple dose, read-out: mean AUC0-24) was determined as 382 ng·h/mL; in [10] (human, plasma, oral, 40 mg, multiple dose, read-out: mean AUC0-24) it was 825 ng·h/mL; in [10] (human, plasma, oral, multiple dose, 20 and 40 mg/day, dose normalized to 20 mg, mean ± SD, read-out: AUC0-24), 402 ± 292 ng·h/mL. For the same molecule, in [10] (human, plasma, oral, multiple dose, 20 and 40 mg/day, dose normalized to 20 mg, mean ± SD), the peak level (Cmax) was 62.1 ± 38.2 ng/mL. Also, the Tmax is 2 h in [10] (human, plasma, oral, multiple dose, 20 and 40 mg/day, median (range), read-out: Tmax); roughly 2 h in series [10] (human, plasma, oral administration, read-out: median time to peak plasma concentration (Tmax)). Besides, in series [10] (human, plasma, po, multiple dose, 20 and 40 mg/day, mean ± SD, read-out: CLbw/F (weight normalized oral clearance) (converted)), the CL/F was 15 mL/min/kg. For the same molecule, the “age-, gender-, body weight-, or race-related effects on PK” value in series [10] (pooled analysis) is “no clinically relevant”. Further, the “Steady-state mean oral clearance (CL/F)” value in [10] (steady state) is given as 62.2 L/h. For the same molecule, the “effect on bifeprunox PK” value in [11] (administration of famotidine) and in series [11] (co-administration with paroxetine) was “no effect” throughout. Also, in series [11] (bifeprunox 40 mg/day with warfarin), the “prothrombin time profile following warfarin, presence versus absence of bifeprunox” value is “comparable”. Also, the “decrease of mean AUC0-24” value in series [11] (setting [13]) is listed as 54%. Moreover, the “decrease of mean Cmax” value in series [11] (setting [13]) came to 50%. The “reduction of bifeprunox exposure” value in series [11] (setting [13]) is given as “approximately 50%”. Besides, in [11] (setting [14]), the “increase of mean bifeprunox AUC0-24” value is 3.7 fold. Besides, in [11] (setting [14]), the “increase of mean bifeprunox Cmax” value turned out to be 2.5 fold. Besides, the “increase of bifeprunox AUC0-24” value in series [11] (setting [15]) is on record as 63%. The “increase of bifeprunox Cmax” value in series [11] (setting [15]) stood at 44%. For the same molecule, in series [11] (co-administration with lithium), the “effect of bifeprunox on the PK of lithium” value is “no effect”. Also, in [11] (co-administration with warfarin), the “effect of bifeprunox on the PK and pharmacodynamics of warfarin” value is on record as “no effect”.

Regarding `O=c1[nH]c2cccc(N3CCN(Cc4cccc(-c5ccccc5)c4)CC3)c2o1` [polymorph α, 7-[4-([1,1′-biphenyl]-3-ylmethyl)-1-piperazinyl]-2(3H)-benzoxazolone monomethanesulfonate], the “conversion of the polymorphic form” value in series [12] (high atmospheric humidity or higher temperature) is given as “does not undergo conversion”. Also, the “thermodynamic stability of the crystalline form” value (“thermodynamic stability” below) in series [12] was “more thermodynamically stable”.

In the case of `O=c1[nH]c2cccc(N3CCN(Cc4cccc(-c5ccccc5)c4)CC3)c2o1` [polymorph γ, 7-[4-([1,1′-biphenyl]-3-ylmethyl)-1-piperazinyl]-2(3H)-benzoxazolone monomethanesulfonate], the “thermodynamic stability” value in series [12] is listed as “metastable”.

As to `O=c1[nH]c2cccc(N3CCN(Cc4cccc(-c5ccccc5)c4)CC3)c2o1` [polymorph δ, 7-[4-([1,1′-biphenyl]-3-ylmethyl)-1-piperazinyl]-2(3H)-benzoxazolone monomethanesulfonate], in [12], the “thermodynamic stability” value was “metastable”.
